Values of other authors, collected in US20230338329A1, “C[…] COMPOSITION AND METHOD OF MANUFACTURING” (priority 2022, published 2023).

Details: hydrophilic-lipophilic balance value

## CCCCCCCCCCCCOS(=O)(=O)[O-].[Na+] [sodium lauryl sulfate]
  HLB: 40

## Sorbitan monooleate [Span 80]
  HLB: 4.9

## alkyl phenyl polyoxyethylene ether
  HLB: 14.5

## polyoxyethylene sorbitan monooleate
  HLB: 15
